# Measurements as given in US20240108634A1, “COMPOSITIONS AND METHODS FOR INHIBITING YAP” (The United States Government as represented by the …, priority 2021, published 2024).
# Assays:
# [1] = Brain and plasma concentrations by HPLC after IV administration; format: in vivo, C57/BL6 mice; settings: single IV administration
# Experimental: FIGS. 9A-B show GEMM survival and brain/blood plasma concentrations following treatment with NSC682769. […] C57/BL6 mice were administered NSC682769 IV and mean brain and plasma concentrations were determined via HPLC analyses. (n=5).
# Protein and mRNA analyses, immunoprecipitation, in vitro bead-coupled inhibitor binding assays and HPLC analyses. Western blot analyses were performed as previously described (Artinian N, et al. (2015) J Biol Chem 290: 19387-19401). Briefly, cells were lysed in RIPA (lysis) buffer containing protease inhibitor cocktail and phosSTOP™ phosphatase inhibitor cocktail (Roche) and extracts resolved by SDS-PAGE. Proteins were transferred to PVDF membranes and incubated with the indicated antibodies. Antigen-antibody complexes were detected using appropriate horseradish peroxidase-conjugated secondary antibodies (GE Healthcare) and enhanced chemiluminescence (Amersham ECL Prime). […] For quantitative RT-PCR, extraction of RNA was performed using Trizol® (Life Technologies). Total RNA was then quantified and integrity assessed using an Agilent 2100 Bioanalyzer (Agilent Technology). […] SYBR® Green quantitative PCR (Millipore Sigma) was performed in triplicate in 96-well optical plates on an ABI Prism 7000 Sequence Detection System (Life Technologies) according to the manufacturer's instructions. […]
# T98G cells = assay: Cell Titer-Glo sensitivity of T98G cells with YAP1 knockdown or overexpression; format: cell-based, human; settings: 72 h
# Description: Nuclear and cytoplasmic fractions were immunoblotted for YAP, HSP90 and lamin B2. FIG. 4B show quantification of nuclear YAP expression levels from a as determined by densitometric analyses. Relative nuclear YAP1 expression in U87 cells was arbitrarily assigned a value of 1. Nuclear YAP expression in the cell lines is shown as mean+S.D., n=3. […] Relative nuclear YAP expression was obtained from FIG. 4B above. […] Data represent mean±S.D. of three independent experiments (*, P<0.05).
# Cell proliferation, clonogenic, migration, invasion and apoptosis assays. Cell proliferation was determined via Cell Titer-Glo® luminescent cell assays (Promega). Clonogenic assays were done by plating a total of 1,000 cells per well in 24-well plates in a total volume of 400 μL using a two-layered soft agar system as previously described (Masri J, et al. (2007) Cancer Res 67: 11712-11720). […]
# Increased YAP expression directly correlates with NSC682769 sensitivity in GBM cells. […] To examine whether differences in YAP expression may alter sensitivity to NSC682769, the relative expression of nuclear versus cytoplasmic YAP was determined in a panel of GBM lines (FIG. 4A). […] Cell viability was then determined using ATP-release assays on these lines over a wide range of NSC682769 concentrations and IC50s calculated (FIG. 4C). […]
smiles,measurement,setting,value
COc1ccc(-c2cc(-c3ccccc3)nc3c2CC(=O)Nc2ccccc2-3)cc1OC [NSC682769],Cb/Cp ratios (brain/plasma),[1],consistent with BBB penetrance
same,Peak value in brain tissue,[1]; at 5 min post-administration,6.22 µg/g
same,Sensitivity versus parental T98G line,T98G cells; T98G with YAP1 knocked down (shRNA),relatively resistant
same,Sensitivity versus parental T98G line,T98G cells; T98G with YAP1 overexpressed,significantly more sensitive
